Data taken from patent publication US20120101147A1, “INHIBITION OF HDAC2 TO PROMOTE MEMORY” (The General Hospital Corporation d/b/a Massachusetts …, priority 2008, published 2012).

Assays:
[1] = test system: tetra-acetylated H4; experiment: Western blot of tetra-acetylated H4 in primary striatal cells; assay type: cell-based, mouse; settings: relative to DMSO controls
Method: (§1) Four compounds were tested including CI-994 (BRD-3696) and SAHA. […] BRD-6929 and BRD-5298 treatment results in a 2-5 fold increase in both marks at 1 and 10 uM.

[2] = test system: tetra-acetylated H2B; experiment: Western blot of tetra-acetylated H2B in primary striatal cells; assay type: cell-based, mouse; settings: relative to DMSO controls
Method: as §1

[3] = test system: H4K12 acetylation in primary striatal cells; experiment: Western blot of H4K12 acetylation in primary striatal cells; assay type: cell-based, mouse; settings: 1 and 10 uM; relative to DMSO
Description: A. Western blots of primary striatal cells isolated from mouse brain that have been treated with HDAC inhibitors. Two sets of data with 3 independent samples/set. B. Histograms represent the quantification of westerns shown in panel A.
Two sets of data with 3 independent samples/set are presented. Histograms representing the quantification of westerns are also shown. Relative to DMSO controls, BRD-6929 has a significant effect on the acetylation levels of histone locus H4K12. BRD-6929 treatment results in a 5-10 fold increase at 1 and 10 uM. BRD-6929 is an HDAC 1,2 selective compound, and has 200× selectivity for HDAC1,2 vs. HDAC3. […] In this case the data was compared to controls: SAHA and BRD-3696 (CI-994). An HDAC1,2 selective compound is as effective at increasing acetylation as an HDAC1,2,3 inhibitor and a pan inhibitor (i.e. SAHA). Inhibiting HDAC1,2 is sufficient to effect increased acetylation at this histone locus.

[4] = test system: mice; experiment: Context-dependent fear conditioning memory test; assay type: in vivo, mouse; settings: C57/BL6 WT mice; 45 mg/kg every day for 10 days; foot shock 0.8 mA
Method: Fear conditioning tests Context-dependent fear conditioning. Training consists of a 3 min exposure of mice to the conditioning box (context) followed by a foot shock (2 sec, 0.5/0.8/1.0 mA, constant current). The memory test was performed 24 hr later by re-exposing the mice for 3 min into the conditioning context. Freezing, defined as a lack of movement except for heart beat and respiration associated with a crouching posture, was recorded every 10 sec by two trained observers (one was unaware of the experimental conditions) during 3 min (a total of 18 sampling intervals). The number of observations indicating freezing obtained as a mean from both observers was expressed as a percentage of the total number of observations.
Chemical administration Suberoylanilide hydroxamic acid (SAHA) was synthesized as described previously in WO 93/07148 PTC/US92/08454. Sodium butyrate was purchased from Sigma (cat.B5887). SAHA and WT-161 were dissolved in DMSO as stock solutions and diluted in saline just before injection. Sodium butyrate was prepared in saline. Mice received intraperitoneal injection daily with either SAHA or saline for 10 days or 21 days.
C57/BL6 WT mice were injected with vehicle or BRD-6929 for 10 days. On day 11, mice were trained in contextual fear conditioning paradigm (Training consisted of a 3 min exposure of mice to the conditioning box (context, TSE) followed by a foot shock (2 sec, 0.8 mA, constant current). One hour after training, mice were injected with BRD-6929 or vehicle. On day 12, mice were returned to the training box and the freezing behavior were monitored and recorded.

[5] = test system: tetra-acetylated H2B; experiment: Western blot of cortex after acute treatment: tetra-acetylated H2B; assay type: in vivo, mice
Method: (§2) The experimental protocol for acute treatment with BRD-6929 and the corresponding effects on histone acetylation in brain specific regions of adult male C57BL/6J mice is shown in FIG. 18. Crude Protein Lysis Protocol for western blot analysis of specific brain sections.
(§3) a. On ice, thaw frozen tissue and immediately homogenize carefully in 250 uL of ice-cold Suspension Buffer.
(§4) b. As soon as possible, add an equal volume of 2×SDS gel-loading buffer, pipetting up and down to mix.
(§5) 2. Place the sample at 95° C. for 5 min.
(§6) 3. Shear viscous chromosomal DNA by smoothly passaging through 23-25 gauge hypodermic needle (2-3×) or by sonicating briefly (Al used the needle method and it worked fine). Avoid foaming/bubbles.
(§7) 4. Centrifuge the sample at 10,000 g for 10 min at room temperature, transferring supernatant to fresh tube.

[6] = test system: H2B acetylation; experiment: Immunofluorescence: H2B acetylation in primary neuronal cell cultures; assay type: cell-based, mouse; settings: 1 and 10 uM, 6 h
Method: (§8) 1) Compounds were pin transferred from 384-well plates (Abgene) using a 185 nl pin tool using a no touch bottom protocol.
(§9) 1) Media was aspirated using a plate washer (Tecan) protocol that leaves ˜5 ul residual volume and without touching the bottom of plates); or alternatively, wells were gently aspirated to remove media with 12-channel aspirator wand.
(§10) 2) A multichannel pipet or use liquid handling system (e.g. Combi, standard tubing; slow speed) was used to add 75 ul formaldehyde (4% in PBS) and wells incubated 10 min at room temperature.
(§11) 3) Formaldehyde was aspirated and cells rinsed 3 times with 100 ul PBS;
(§12) 4) PBS was aspirated and 100 ul blocking/permeablization buffer (0.1% Triton-X100, 2% BSA, in PBS) added and wells incubate 1 hour at room temperature.
(§13) 5) Blocking buffer was aspirated and 50 ul primary antibody diluted 1:500 in blocking buffer was added and wells incubated overnight at 4 degrees.
(§14) 1) Primary antibody was aspirated and wells rinsed 3 times with 100 ul blocking buffer
(§15) 2) 50 ul of secondary antibody diluted 1:500 and with Hoeschst (1:1000 from 10 mg/mL (16 mM) stock) added and wells incubated 1.5 hours at room temperature covered in foil to prevent photobleaching.
(§16) 3) Wells were rinsed 3 times with 100 ul PBS, and a 100 uls of PBS added and the plates, sealed
(§17) 4) Plates were then read on Acumen/IX Micro

[7] = target: T1, HDAC8 (Homo sapiens, UniProt Q9BY41); experiment: In vitro enzymatic inhibition assay against HDAC isoforms; assay type: biochemical
T1 sequence (Q9BY41 1-377): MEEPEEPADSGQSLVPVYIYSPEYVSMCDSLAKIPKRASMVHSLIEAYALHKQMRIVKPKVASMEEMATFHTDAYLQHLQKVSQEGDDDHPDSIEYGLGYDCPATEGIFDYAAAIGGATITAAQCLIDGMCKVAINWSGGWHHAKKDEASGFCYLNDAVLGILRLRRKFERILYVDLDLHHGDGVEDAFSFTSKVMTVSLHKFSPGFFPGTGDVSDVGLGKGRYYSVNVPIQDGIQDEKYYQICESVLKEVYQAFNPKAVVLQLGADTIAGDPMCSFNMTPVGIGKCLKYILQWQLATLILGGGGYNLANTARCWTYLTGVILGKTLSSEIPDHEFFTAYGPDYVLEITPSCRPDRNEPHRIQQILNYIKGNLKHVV
Method: (§18) The enzymatic inhibitory activity of multiple HDAC inhibitors was assayed against several of the known HDAC isoforms and is shown in FIG. 8. SAHA was included as a reference mixed class I-class II inhibitor. […] All of the BRD numbered compounds are derived from the ortho-anilide class of compounds. Not all compounds from this class are expected to bind the class II HDACs.

[8] = test system: Class II HDAC enzymes; experiment: as above; assay type: biochemical
Method: as §18

[9] = test system: tetra-acetylated H2B; experiment: Western blot of whole brain after chronic administration: tetra-acetylated H2B; assay type: in vivo, mice; settings: every day for 10 days
[10] = test system: H4K12 acetylation; experiment: Immunofluorescence: H4K12 acetylation in primary cultures (striatum); assay type: cell-based, mouse; settings: 10 uM, 6 h
Method: as §8, §9, §10, §11, §12, §13, §14, §15, §16, §17

[11] = test system: HDAC1,2 vs. HDAC3; experiment: Selectivity for HDAC1,2 vs. HDAC3; assay type: biochemical
Description: All of the BRD numbered compounds are derived from the ortho-anilide class of compounds.
Two sets of data with 3 independent samples/set are presented. Histograms representing the quantification of westerns are also shown.

[12] = test system: H2BK5; experiment: Western blot of cortex after acute treatment: H2BK5 acetylation; assay type: in vivo, mice; settings: cortex after 1 hour
Method: as §2, §3, §4, §5, §6, §7

[13] = test system: primary neuronal cultures; experiment: Immunofluorescence: overall cell number in primary neuronal cultures; assay type: cell-based, mouse; settings: 1 and 10 uM, 6 h
Method: as §8, §9, §10, §11, §12, §13, §14, §15, §16, §17

[14] = Pharmacokinetics in plasma and brain after single i.p. dose; assay type: in vivo; settings: single 45 mg/kg i.p.; C-57 mice
Method: FIG. 17 is the concentration-time curve of BRD-6929 in plasma and brain following single 45 mg/kg i.p. dose in mice.
FIG. 17 represents a summary of the pharmacokinetic data after a single dose of 45 mg/kg BRD-6929 administered systemically via intraperitoneal injection. The concentration time curves for BRD-6929 in the plasma and brain of C-57 mice from 5 min to 24 h are shown.

[15] = test system: H4K12 acetylation in HEK293 cells; experiment: Western blot of H4K12 acetylation in whole HEK293 cells; assay type: cell-based; settings: 10 uM, 6 hour
Method: Series of compounds incubated with whole HEK293 cells at 10 uM for a 6 hour time period. Western blot showing increased acetylation levels over DMSO controls using anti-acetyl H4K12 antibodies and horseradish peroxidase conjugated secondary antibody along with a luminol-based substrate.
Relative to the DMSO control, multiple selectivity profiles are effective in increasing H4K12 acetylation levels. […] BRD-4097 is the negative control.
Standard western blotting methods were used to measure the effects of HDAC inhibitors on histone acetylation marks in […]. Series of compounds were incubated with whole HEK293 cells at 10 uM for a 6 hour time period. […] Quantification of the raw western data (FIG. 10) established that relative to the DMSO control, multiple selectivity profiles are effective in increasing H4K12 acetylation levels, and that HDAC 1,2 and HDAC 1,2,3 selective inhibitors have robust HDAC activity in whole cells on a specific histone loci (H4K12).

| inhibition of HDAC8 [7] | inhibition of Class II HDAC enzymes [8] | overall cell number ([13]; primary cultures (cortex and striatum)) | overall cell number ([13]; primary neuronal cell cultures) | blood-brain barrier penetration [14] | brain AUC [14] [µM] | brain Cmax [14] [µM] | SMILES | tetra-acetylated H4 [1] | tetra-acetylated H2B [2] | increase in acetylation of histone locus H4K12 [3] | memory in contextual fear conditioning paradigm (% time freezing) [4] | increase in H2B (tetra) histone acetylation in cortex ([5]; acute treatment, normalized to histone H3) | levels of tetra-acetylated H2B in the cortex ([5]; single systemic dose, adult male C57BL/6J mice) | increase in H2B tetra-acetylation ([6]; primary cultures (striatum)) | H2B acetylation ([6]; primary neuronal cell cultures) | tetra-acetylated H2B relative to the vehicle control [9] | H4K12 acetylation [10] | selectivity for HDAC1,2 vs. HDAC3 [11] [×] | increase in acetylation levels for H2BK5 [12] | H4K12 acetylation levels relative to DMSO control [15] |
| --- | --- | --- | --- | --- | --- | --- | --- | --- | --- | --- | --- | --- | --- | --- | --- | --- | --- | --- | --- | --- |
| does not inhibit | does not inhibit | does not cause an increase or decrease | do not cause an increase or decrease | crosses the blood-brain barrier | 3.9 | 0.83 | CC(=O)Nc1ccc(C(=O)Nc2cc(-c3cccs3)ccc2N)cc1 [BRD-6929, 4-acetamido-N-(2-amino-5-(thiophen-2-yl)phenyl)benzamide] | significantly increased | trend toward increasing | 5-10 fold | improved | 1.5-2 fold | significant increase | 2-3 fold | significant increase | increase | increase | 200 | 1.5-2 fold |  |
|  |  |  |  |  |  |  | Nc1ccc(-c2cccs2)cc1NC(=O)c1ccc(/C=C/C(=O)NCCc2ccccn2)cc1 [BRD-9853, (E)-N-(2-amino-5-(thiophen-2-yl)phenyl)-4-(3-oxo-3-(2-(pyridin-2-yl)ethylamino)prop-1-enyl)benzamide] |  |  |  |  |  |  |  |  |  |  |  |  | minimal activity |
